SMILES	melting point
CN1C(=O)[C@@H](NC(=O)C2(NC(=O)Cc3cc(F)cc(F)c3)CCCCC2)N=C(c2ccccc2)c2ccccc21	126 to 129 °C
CN1C(=O)[C@@H](NC(=O)C2(NC(=O)Cc3cc(F)cc(F)c3)CCCC2)N=C(c2ccccc2)c2ccccc21	112 to 117 °C
CN1C(=O)[C@@H](NC(=O)C2(NC(=O)Cc3cc(F)cc(F)c3)CC2)N=C(c2ccccc2)c2ccccc21	212 to 214 °C
CN1C(=O)[C@@H](NC(=O)C2(NC(=O)CCC3CCCC3)CCCCC2)N=C(c2ccccc2)c2ccccc21	88 to 103 °C
CC(C)CCC(=O)NC1(C(=O)NC2N=C(C(C)(C)C)c3ccccc3N(C)C2=O)CCCC1 (stereo not shown) [Example 61, N-((N-[5-(tert-Butyl)-1-methyl-2-oxo(3H-benzo[f]1,4-diazepin-3-yl)]carbamoyl)cyclopentyl)-4-methylpentanamide]	175 to 178 °C
CCCCN1C(=O)C(NC(=O)C2(NC(=O)CCC(C)C)CCCC2)N=C(C(C)(C)C)c2ccccc21 (stereo not shown) [Example 62, N-({N-[5-(tert-Butyl)-1-butyl-2-oxo(3H-benzo[f]1,4-diazepin-3-yl)]carbamoyl}cyclopentyl)-4-methylpentanamide]	175 to 177 °C
CCCCC1=NC(NC(=O)C2(NC(=O)CCC(C)C)CCCC2)C(=O)N(Cc2ccccn2)c2ccccc21 (stereo not shown) [Example 63, N-({N-[5-Butyl-2-oxo-1-(2-pyridylmethyl)(3H-benzo[f]1,4-diazepin-3-yl)]carbamoyl}cyclopentyl)-4-methylpentanamide]	63 to 67 °C
